Measurements reported in PubChem BioAssay AID743175 (Broad Institute, 2013).
Active and inactive are the calls of the source. No rule for the calls is given here.

Tested on: not listed separately
Test: inhibitor activity on non-replicating M. tuberculosis, dose response, plate reader, dry powder (AID 743175)
Details: Mycobacterium tuberculosis non-replicating, growth inhibition plate reader; at 26 µM (top of the series)

Compound	activity change, negative = inhibition
COc1ccccc1C#Cc1ccc([C@H]2[C@@H](CO)N(C(=O)C3CC3)[C@H]2C#N)cc1	-16.4% (inactive)

Tested on: Mycobacterium tuberculosis non-replicating, growth inhibition plate reader
Test: as above
Details: not given

Compound	AC90
CCCCN(C/C=C/c1ccccc1OC)Cc1ccccc1	> 38 µM (inactive)
CCOCCOC(=O)COc1ccc2c(-c3ccccc3)cc(=O)oc2c1	> 38 µM (inactive)
CCOC(=O)c1sc(NC(=O)CCN2CCOCC2)c(C(=O)OCC)c1C	> 38 µM (inactive)
c1ccc(Nc2nc(-c3ccccn3)cs2)cc1	> 38 µM (inactive)
Cc1cccc(C)c1N1C(=O)CC(N2CCSCC2)C1=O (centres undefined)	5.72 µM
COc1ccccc1C#Cc1ccc([C@@H]2[C@H](C#N)N(C(=O)C3CC3)[C@H]2CO)cc1	> 23.5 µM (inactive)
CCOC(=O)COc1ccc(C(=O)NC2CCCCC2)cc1	> 38 µM (inactive)
CCOC(=O)COc1ccc2c(=O)c(-c3ccccc3)coc2c1	> 38 µM (inactive)
COc1ccccc1C#Cc1ccc([C@H]2[C@H](C#N)N(C(=O)C3CC3)[C@H]2CO)cc1	> 26 µM (inactive)
CCOC(=O)COc1ccc2c(=O)cc(-c3ccccc3)oc2c1	> 38 µM (inactive)
Cc1nnc(NC(=O)c2ccc3ccccc3c2)o1	1.34 µM
O=C(NCc1cccs1)c1ccc(Br)o1	> 38 µM (inactive)
COc1ccccc1C#Cc1ccc([C@@H]2[C@@H](C#N)N(C(=O)C3CC3)[C@H]2CO)cc1	> 26 µM (inactive)
CCc1ccc(OCCCC(=O)NCc2ccco2)cc1	> 38 µM (inactive)
O=C(NC1CC2CCC1C2)C1COc2ccccc2O1 (centres undefined)	> 38 µM (inactive)
Brc1c(-c2ccc3c(c2)OCO3)nc2ncccn12	32.3 µM
CCOC(=O)COc1ccc2c(c1)C(=O)CC1(CCCCC1)O2	> 38 µM (inactive)
COc1ccccc1C#Cc1ccc([C@H]2[C@@H](CO)N(C(=O)C3CC3)[C@H]2C#N)cc1	> 26 µM (inactive)
COC(=O)COc1cccc(NC(=O)c2ccc(Cl)cc2)c1	> 38 µM (inactive)
NC1CCN(c2c(F)cc3c(=O)c(C(=O)O)cn(C4CC4)c3c2Cl)C1 (centres undefined)	2.94 µM
O=C(COc1c(Br)cc(Br)c2cccnc12)N1CCCCC1	6.33 µM
CCOC(=O)c1cc(-c2csc(COc3ccccc3)n2)on1	> 38 µM (inactive)
Cc1cccc(Cn2ccc(NC(=O)c3ccc4c(c3)OCO4)n2)c1	20 µM
